Results taken from patent publication US20190350907A1, “METHODS AND PHARMACEUTICAL COMPOSITIONS FOR REDUCING CD95- MEDIATED CELL MOTILITY” (INSERM (INSTITUT NATIONAL DE LA SANTÉ ET DE LA RECHERCHE …, priority 2017, published 2019).
Where “and” joins values, the source holds several entries; their conditions need not be identical. Equal values may be shown once. Where no end group is shown, it is not given here.

What was measured:
[1] = system: lupus-prone mice (MRL Lpr/+); conditions: repeated injections; cited from earlier work
[2] = system: CD95-mediated Ca2+ signaling pathway in Tfh cells; assay: CD95-mediated Ca2+ response in Tfh cells; assay type: cell-based, human; conditions: Example 2; signal described for Th17 and circulating Tfh cells
[3] = target: T1, CD95/FADD interaction (Homo sapiens, UniProt P25445+Q13158); assay: Renilla luciferase protein-fragment complementation assay (PCA), CD95-DD/FADD-DD; assay type: cell-based; conditions: result in words; selectivity control
T1 construct: DD-CD95 (aa 210-303) fused to F2; the death domain of FADD (aa 80-210) (D) fused to F1; expressed in transfected cells; host or cells: HEK293T
T1 sequence (P25445 226-319): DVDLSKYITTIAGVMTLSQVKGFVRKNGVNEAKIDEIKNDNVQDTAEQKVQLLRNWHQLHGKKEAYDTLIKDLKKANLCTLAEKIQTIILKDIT
T1 sequence (Q13158 80-208): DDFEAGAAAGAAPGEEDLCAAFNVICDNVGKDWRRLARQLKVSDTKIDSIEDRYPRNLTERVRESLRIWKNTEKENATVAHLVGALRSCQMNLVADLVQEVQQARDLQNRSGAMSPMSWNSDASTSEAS
Source text: FIG. 1. Identification of chemical leads from the Prestwick library inhibiting the CD95/PLCγ1 interaction. A. Schematic representation of the protein-fragment complementation assay used with CD95-CID or -DD fused to F2 and PLCγ1-SH3 or FADD-DD fused to F1 to identify inhibitors from the Prestwick library. The Renilla luciferase enzyme was divided into amino-terminal and carboxy-terminal fragments (yellow domains) and fused to the indicated domains. B. Compounds from the Prestwick library were tested against CD95/PLCγ1 or CD95/FADD PCA. This library allowed us to select 34 hits based on their ability to inhibit CD95/PLCγ1 interaction (≥70% of signal inhibition) without altering CD95/FADD binding (ratio (CD95/PLCγ1 inhibition/CD95/FADD inhibition) ≥2). […] Inhibition of CD95/FADD interaction is also assessed.
A. CID-CD95 (aa 175-210) or DD-CD95 (aa 210-303) fused to F2 were co-transfected into HEK cells with the indicated domains of PLCγ1 (Ca^2+ response) or FADD (apoptosis) fused to F1. […] The inhibition of light emission for the indicated PPIs was assessed in cells incubated for the indicated times in the presence of TAT-CID (25 μM). […] Then, the indicated peptides fused with or without the cell-penetrating domain TAT were incubated at the indicated concentrations for 4 hrs and luminescence was assessed. […]

[4] = system: Tfh-dependent B cell activation; assay: Tfh-dependent B-cell maturation co-culture (memory B cells with SEB-stimulated Tfh cells, s-CD95L); assay type: cell-based; conditions: preincubation of Tfh cells
[5] = target: T2, CD95/PLCγ1 interaction (Homo sapiens, UniProt P19174); assay: Renilla luciferase protein-fragment complementation assay (PCA), CD95-CID/PLCγ1-SH3; assay type: cell-based; conditions: PCA in HEK cells
T2 construct: The PLCγ1-SH3 domain (aa 790-851) (C); expressed in transfected cells; host or cells: HEK293T
T2 sequence (P19174 790-851): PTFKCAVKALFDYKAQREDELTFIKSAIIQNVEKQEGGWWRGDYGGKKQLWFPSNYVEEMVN
Protocol: FIG. 1. […] A. Schematic representation of the protein-fragment complementation assay used with CD95-CID or -DD fused to F2 and PLCγ1-SH3 or FADD-DD fused to F1 to identify inhibitors from the Prestwick library. The Renilla luciferase enzyme was divided into amino-terminal and carboxy-terminal fragments (yellow domains) and fused to the indicated domains. B. Compounds from the Prestwick library were tested against CD95/PLCγ1 or CD95/FADD PCA. […] Inhibition of CD95/FADD interaction is also assessed.
Light emission indicates refolding of the luciferase and reconstitution of enzyme activity through protein/protein interactions. […] Data represent means±SD of three independent experiments. […] Then, the indicated peptides fused with or without the cell-penetrating domain TAT were incubated at the indicated concentrations for 4 hrs and luminescence was assessed. Data represent means±SD of three independent experiments. […].
HEK293T cells were electroporated with 5 μg of DNA using BTM-830 electroporation generator (BTX Instrument Division, Harvard Apparatus) with 10 μg of DNA. Transfected cells were cultured for 24 hrs prior to protein complementation assay analyses as previously described (17). Briefly, transfected cells (10^6) were washed, resuspended in 100 μl PBS and deposited in OptiPlate-96 (PerkinElmer, Waltham, Mass., USA). Coelenterazine-h (5 μM, Sigma) was injected to each well and renilla luciferase activity was monitored for the first 10 seconds using Infinite200Pro (Tecan, Männedorf, Switzerland).
A peptide consisting of the cell-penetrating domain of TAT fused to CID (TAT-CID) binds the SH3 domain of PLCγ1 and thereby, prevents PLCγ1/CD95 interaction and the subsequent induction of the Ca^2+ response (16). […] Briefly, the Renilla luciferase enzyme was divided into two fragments (F1 and F2 fragments). […] Interaction of CD95 with PLCγ1 or FADD allows the reconstitution of RLuc and subsequent light emission (FIG. 1A). The chemical Prestwick library was screened against these PCAs (FIG. 1B). […] These molecules are designated CID inhibitors or CIDINH.

**Q.** For “TAT-CID: peptide consisting of the CID (CD95 amino acids 175 to 210) conjugated to the cell-penetrating domain of TAT (KRKEVQKTCRKHRKENQGSHESPTLNPETVAINLSD; not fully specified (N-terminus); also: conjugated to TAT cell-penetrating domain, site not given here)”, which “effect on clinical symptoms” value [1] is on record?
**A.** Its value is “alleviate clinical symptoms”.

**Q.** And the “effect on endothelial transmigration of Th17 cells in vivo” value [1]?
**A.** Its value is “block”.

**Q.** And the “effect on sCD95L-induced Ca2+ response” value [2]?
**A.** Its value is “abrogated”.

**Q.** And the “effect on CD95/FADD interaction” value [3]?
**A.** The value was “failed to alter”.

**Q.** What about the “effect on Tfh-dependent B cell activation” value [4] of the same substance?
**A.** The value was “blocks”.

**Q.** What about the IC50 ([5]; peptides incubated for 4 hours, read-out: IC50, disruption of CD95/PLCγ1 interaction by peptides) of the same substance?
**A.** Its IC50 is 10.8 µM and 11.5 µM.

**Q.** And the “time course of inhibition of CD95/PLCγ1” value ([5]; TAT-CID 25 μM)?
**A.** Its value is “increased in a time dependent manner”.
